Measurements published in patent publication US10471118B2, “Retinylamine derivitives for treatment of ocular disorders” (CASE WESTERN RESERVE UNIVERSITY, priority 2014, dated 2019).
Entries after “also recorded” stand apart in the source; their conditions may differ.

Legend:
Abca4^−/−Rdh8^−/− mice = experiment: Light-induced retinal degeneration in Abca4-/-Rdh8-/- mice (OCT, ERG, histology), Example 1; type: in vivo, mouse; conditions: 0.875 μmol per mouse oral gavage 16 h before 10,000 lux 1 h, OCT after 3 days in dark
Method: Abca4^−/−Rdh8^−/− double knockout mice were housed in the animal facility at the School of Medicine, Case Western Reserve University, where they were maintained under either complete darkness or a 12-h light (−10 1×) and 12-h dark cycle. All retinylamine tested were dissolved or suspended in 100 μl of vegetable oil with less than 10% (v/v) DMSO and were administered by oral gavage with a 22-gauge feeding needle. Experimental manipulations in the dark were done under dim red light transmitted through a Kodak No. 1 safelight filter (transmittance >560 nm). All animal procedures and experiments were approved by the Case Western Reserve University Animal Care Committees and conformed to recommendations of the American Veterinary Medical Association Panel on Euthanasia and the Association of Research for Vision and Ophthalmology.
After dark adaptation for 48 h, one or two Abca4^−/−Rdh8^−/− mice with pupils dilated by 1% tropicamide were exposed to fluorescent light (10,000 1×; 150-W spiral lamp, Commercial Electric) for 60 min in a white plastic bucket (Papersmith) with food and water and then kept in the dark. Histological and biochemical experiments were performed 3 days after exposure.
Ultra-high resolution spectral-domain OCT (SD-OCT; Bioptigen) and Heidelberg Retinal Angiograph II SLO (Heidelberg Engineering) were used for in vivo imaging of mouse retinas. Mice were anesthetized by intraperitoneal injection of a cocktail (20 μl g-1 body weight) containing ketamine (6 mg ml-1) and xylazine (0.44 mg ml-1) in 10 mM sodium phosphate, pH 7.2, and 100 mM NaCl. Pupils were dilated with 1% tropicamide. Four pictures acquired in the B-scan mode were used to construct each final averaged SD-OCT image.
All ERG procedures were performed by published methods. For single-flash recording, the duration of white-light flash stimuli (from 20 μs to 1 ms) was adjusted to provide a range of illumination intensities (from −3.7 to 1.6 log cd s m-2). Three to five recordings were made at sufficient intervals between flash stimuli (from 3 s to 1 min) to allow recovery from any photobleaching effects.
Mouse eyes were fixed for 24 h by rocking in a fixation solution (2 ml/eye) containing 4% paraformaldehyde and 1% glutaraldehyde in PBS. The tissue was processed through a series of ethanols, xylenes, and paraffins in a Tissue-Tek VIP automatic processor (Sakura, Torrance, Calif., USA), and 5-μm sections were cut using a Microm HM355 paraffin microtome (Thermo Fisher Scientific, Waltham, Mass., USA) and stained with hematoxylin and eosin (H&E) stain. Images of stained sections were captured by a Leica CTR6000 microscope attached to a CCD camera (Micropublisher 5.0 RTV, Qimaging Surray BC, Canada).
The effectiveness of the retinylamine derivatives on preventing light-induced retinal degeneration was tested in four-week old Abca4^−/−Rdh8^−/− mice according to the experimental scheme depicted in FIG. 1. After the mice were dark-adapted for 48 h, the drugs were gavaged at a dose 0.875 μmol/per mouse, which was selected based on the half protection dose for retinylamine after a dosing experiment, FIG. 2. Retinylamine was tested as a control at the same dose. […] Retinal integrity was assessed using optical coherence tomography (OCT). […] The mice without any treatment had photoreceptor cells completely destroyed after light illumination, and were used as a negative control. The retinal integrity was determined based on the thickness of outer nuclear layer (ONL) of the retinas measured from the OCT images. Reduced ONL thickness signifies the decreasing number of photoreceptors and retinal degeneration.

[1] = Biodistribution of N-retinylamides and retinylamine derivatives in liver and eye after oral gavage; type: in vivo, mouse; conditions: for original drug detected in the eye: 2 h and 16 h; for metabolism in the eye: conclusion from biodistribution at 2 h and 16 h
Method: Female C57BL mice (4-week-old) were randomly divided into seven groups, six treated groups and one control group. Free Ret-NH2 (3.5 μmol per mouse, dissolved in DMSO and dispersed in vegetable oil) or retinylamine derivatives (Ret-Gly, Ret-L-Val-Gly, Ret-L-Phe, Ret-L-Leu, Ret-L-Val, 3.5 μmol per mouse, dissolved in DMSO and dispersed in vegetable oil) was administered by gastric gavage, control group was only gavaged vegetable oil. Then at each predetermined time point (2 and 16 h after drug administration), 3 mice were sacrificed. The liver and eye balls were collected to determine tissue N-retinylamide content for pharmacokinetic analysis. A portion of the liver tissue (0.3-0.5 g) was weighed, homogenized in 2 mL 1:1 ethanol:PBS solution and the eye balls were similarly processed (eye balls were combined for 3 mice). N-Retinylamides were extracted in 4 mL hexane, concentrated, and reconstituted to a 300 μL volume for liver (200 μL for eye). Normal-phase HPLC (Agilent-Zorbax SIL; 5 μm; 4.5×250 mm; flow rate of 1.4 mL/min; 80:20 hexane:ethyl acetate (v:v); detection at 325 nm) was utilized to determine N-retinylamide concentration in these tissues.
Female C57BL mice (4-week-old) were randomly divided into seven groups, six treated groups and one control group. Free Ret-NH2 (3.5 μmol per mouse, dissolved in DMSO and dispersed in vegetable oil) or retinylamine derivative (Ret-Gly, Ret-L-Val-Gly, Ret-L-Phe, Ret-L-Leu, Ret-L-Val, 3.5 μmol per mouse, dissolved in DMSO and dispersed in vegetable oil) was administered by gastric gavage, control group was only gavaged vegetable oil. Then at each predetermined time point (2 and 16 h after drug administration), 3 mice were sacrificed. The liver and eye balls were collected to determine tissue drug content for pharmacokinetic analysis. A portion of the liver tissue (0.3-0.5 g) was weighed, homogenized in 2 mL 1:1 ethanol:PBS solution and the eye balls were similarly processed. Retinylamine or its derivative was extracted in 4 mL ethyl acetate, concentrated, and reconstituted to a 300 μL volume for liver (200 μL for eye). Reverse-phase HPLC (analytical C18 reverse column; 5 μm; 250 mm×4.6 mm; flow rate of 1.0 mL/min; 60:40 acetonitrile:H2O (v:v) with 0.05% trifluoroacetic acid; detection at 325 nm) was utilized to determine retinylamine or its derivative in these tissues. […]
No N-retinylamides were detected in the eye at 2 h for all treated mice. The concentration of N-retinylamides in the liver of all treated mice increased at 16 h post-treatment. […] The concentrations of the original drugs were also determined in the liver and eye at 2 h and 16 h (FIGS. 7C, D). All tested drugs, including Ret-NH2, were detected in liver and their concentrations decreased from 2 h to 16 h.

[2] = 3.5 μmol per mouse oral, C57BL mice, 16 h

Row | SMILES | protection against light-induced retinal degeneration (ONL thickness from OCT) (Abca4^−/−Rdh8^−/− mice) | original drug detected in the eye ([1]; 3.5 μmol per mouse oral) | further results
1 | CC1=C(/C=C/C(C)=C/C=C/C(C)=C/CNC(=O)CN)C(C)(C)CCC1 [RG, 2-amino-N-((2E,4E,6E,8E)-3,7-dimethyl-9-(2,6,6-trimethylcyclohex-1-en-1-yl)nona-2,4,6,8-tetraen-1-yl)acetamide] | significant improvement on preventing light-induced retinopathy over retinyl amine; also recorded: relatively high protecting effect | detected in eyes at both 2 h and 16 h at a relatively high concentration | protection against light-induced retinal degeneration (ONL thickness from OCT) (Abca4^−/−Rdh8^−/− mice; listed as glycyl): significantly better protection than Ret-NH2 and other derivatives; liver concentration of N-retinylamides [1, 2]: lower liver concentration of N-retinylamides than RF and RL
2 | CC1=C(/C=C/C(C)=C/C=C/C(C)=C/CNC(=O)CNC(=O)[C@@H](N)C(C)C)C(C)(C)CCC1 [RGV, (S)-2-amino-N-(2-(((2E,4E,6E,8E)-3,7-dimethyl-9-(2,6,6-trimethylcyclohex-1-en-1-yl)nona-2,4,6,8-tetraen-1-yl)amino)-2-oxoethyl)-3-methylbutanamide] | significant improvement on preventing light-induced retinopathy over retinyl amine | – | –
3 | CC1=C(/C=C/C(C)=C/C=C/C(C)=C/CNC(=O)[C@@H](N)CC(C)C)C(C)(C)CCC1 [RL, (S)-2-amino-N-((2E,4E,6E,8E)-3,7-dimethyl-9-(2,6,6-trimethylcyclohex-1-en-1-yl)nona-2,4,6,8-tetraen-1-yl)-4-methylpentanamide] | low protecting effect | only detected at 2 h | protection against light-induced retinal degeneration (ONL thickness from OCT) (Abca4^−/−Rdh8^−/− mice; listed as L-leucyl): little protecting efficacy; metabolism in the eye [1]: rapidly metabolized into inactive N-retinylamides in the eye
4 | CC1=C(/C=C/C(C)=C/C=C/C(C)=C/CNC(=O)[C@@H](N)C(C)C)C(C)(C)CCC1 [RV, (S)-2-amino-N-((2E,4E,6E,8E)-3,7-dimethyl-9-(2,6,6-trimethylcyclohex-1-en-1-yl)nona-2,4,6,8-tetraen-1-yl)-3-methylbutanamide] | relatively high protecting effect | detected in eyes at both 2 h and 16 h at a relatively high concentration | N-retinylamides in the eye [1, 2]: no detectable N-retinylamides in the eye; liver concentration of N-retinylamides [1, 2]: lower liver concentration of N-retinylamides than RF and RL; metabolism in the eye [1]: stable against metabolism and had prolonged presence in the eye as intact drug molecules

Second part, led by results:

Row | protection against light-induced retinal degeneration (ONL thickness from OCT) (Abca4^−/−Rdh8^−/− mice) | SMILES | original drug detected in the eye ([1]; 3.5 μmol per mouse oral) | further results
5 | little protecting efficacy | CC1=C(/C=C/C(C)=C/C=C/C(C)=C/CNC(=O)[C@H](C)N)C(C)(C)CCC1 [3a, (S)-2-amino-N-((2E,4E,6E,8E)-3,7-dimethyl-9-(2,6,6-trimethylcyclohex-1-en-1-yl)nona-2,4,6,8-tetraen-1-yl)propanamide] | – | –
6 | little protecting efficacy | CC[C@H](C)[C@H](N)C(=O)NC/C=C(C)/C=C/C=C(C)/C=C/C1=C(C)CCCC1(C)C [3c, (2S,3S)-2-amino-N-((2E,4E,6E,8E)-3,7-dimethyl-9-(2,6,6-trimethylcyclohex-1-en-1-yl)nona-2,4,6,8-tetraen-1-yl)-3-methylpentanamide] | – | –
7 | little protecting efficacy | CC1=C(/C=C/C(C)=C/C=C/C(C)=C/CNC(=O)[C@@H](C)N)C(C)(C)CCC1 [3f, (R)-2-amino-N-((2E,4E,6E,8E)-3,7-dimethyl-9-(2,6,6-trimethylcyclohex-1-en-1-yl)nona-2,4,6,8-tetraen-1-yl)propanamide] | – | –
8 | little protecting efficacy | CC1=C(/C=C/C(C)=C/C=C/C(C)=C/CNC(=O)[C@H](N)C(C)C)C(C)(C)CCC1 [3g, (R)-2-amino-N-((2E,4E,6E,8E)-3,7-dimethyl-9-(2,6,6-trimethylcyclohex-1-en-1-yl)nona-2,4,6,8-tetraen-1-yl)-3-methylbutanamide] | – | –
9 | little protecting efficacy | CC1=C(/C=C/C(C)=C/C=C/C(C)=C/CNC(=O)CCN)C(C)(C)CCC1 [3h, 3-amino-N-((2E,4E,6E,8E)-3,7-dimethyl-9-(2,6,6-trimethylcyclohex-1-en-1-yl)nona-2,4,6,8-tetraen-1-yl)propanamide] | – | –
10 | little protecting efficacy | CC1=C(/C=C/C(C)=C/C=C/C(C)=C/CNC(=O)[C@@H]2CCCN2)C(C)(C)CCC1 [3i, (S)—N-((2E,4E,6E,8E)-3,7-dimethyl-9-(2,6,6-trimethylcyclohex-1-en-1-yl)nona-2,4,6,8-tetraen-1-yl)pyrrolidine-2-carboxamide] | – | –
